Data as given in ChEMBL document CHEMBL1201862, “PubChem BioAssay data set” (2004).
Activity calls are given as the source filed them.

Legend:
[1] = MC4R antagonists, dose response, counter-screen for LGR2 antagonist project, cell-based, plate reader, cherry pick (AID 743444); format: functional;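 note: transfected HEK 293 cells stimulated with alpha-MSH peptide; potency of inhibitors of the alpha-MSH evoked signal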
[2] = biological target: T1, Nuclear receptor subfamily 0 group B member 1 (Homo sapiens, UniProt P51843); format: functional, cell-based;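 note: HEK293T cells transfected with SF-1 and DAX-1 plus StAR promoter luciferase reporter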
T1 sequence (P51843 whole entry): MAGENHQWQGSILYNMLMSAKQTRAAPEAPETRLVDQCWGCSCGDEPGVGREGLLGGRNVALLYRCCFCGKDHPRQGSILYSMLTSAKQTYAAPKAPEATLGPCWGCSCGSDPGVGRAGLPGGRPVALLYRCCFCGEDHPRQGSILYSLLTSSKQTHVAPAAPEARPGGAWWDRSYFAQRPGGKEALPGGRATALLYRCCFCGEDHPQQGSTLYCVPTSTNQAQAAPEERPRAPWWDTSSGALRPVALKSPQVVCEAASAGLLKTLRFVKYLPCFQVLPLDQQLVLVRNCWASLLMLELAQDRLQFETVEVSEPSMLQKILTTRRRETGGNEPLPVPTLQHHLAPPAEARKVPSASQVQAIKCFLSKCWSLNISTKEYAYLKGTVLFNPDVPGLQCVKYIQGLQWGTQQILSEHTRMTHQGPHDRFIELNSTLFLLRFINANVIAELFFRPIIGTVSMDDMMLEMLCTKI

[3] = cells; format: functional, cell-based
[4] = HepG2 cell cytotoxicity, dose response, cytotoxicity control, plate reader, cherry-pick, antagonist series (AID 743416); format: functional, cell-based
[5] = LGR2 antagonists, dose response, cell-based, HEK293, CRE-luciferase reporter, cherry pick, set 2 (AID 743343); format: functional;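 note: transfected cells were stimulated with diluted bursicon conditioned medium after compound addition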
[6] = A549 cell cytotoxicity, dose response, cytotoxicity control, plate reader, cherry-pick, antagonist series (AID 743412); format: functional, cell-based
[7] = biological target: Fructose-bisphosphate aldolase (Mycobacterium tuberculosis, UniProt P9WQA3); test: Fluorescence-based biochemical high throughput dose response assay for inhibitors of the fructose-bisphosphate aldolase (FBA) of M. tuberculosis.; format: functional
Fructose-bisphosphate aldolase, sequence (P9WQA3 whole entry): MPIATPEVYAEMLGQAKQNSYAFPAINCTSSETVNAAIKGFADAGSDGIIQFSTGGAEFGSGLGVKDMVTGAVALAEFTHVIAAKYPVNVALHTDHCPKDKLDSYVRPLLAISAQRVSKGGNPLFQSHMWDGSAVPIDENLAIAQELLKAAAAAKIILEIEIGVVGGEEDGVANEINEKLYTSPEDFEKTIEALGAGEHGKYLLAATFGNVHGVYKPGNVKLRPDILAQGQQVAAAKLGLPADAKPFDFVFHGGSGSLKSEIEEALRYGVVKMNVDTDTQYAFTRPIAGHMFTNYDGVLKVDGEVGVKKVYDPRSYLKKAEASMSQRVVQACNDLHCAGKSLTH

[8] = biological target: T2, ORF 73 (Human herpesvirus 8, UniProt O40947); test: inhibitors of C-LANA binding to LBS DNA, dose response, biochemical, fluorescence polarization, cherry-picked samples (AID 504725); design: species or system Human gammaherpesvirus 8;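 note: fluorescence polarization of a labeled DNA duplex reporting LANA DNA binding; potency is for inhibitors that block LANA binding to the DNA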
T2 sequence (O40947 whole entry): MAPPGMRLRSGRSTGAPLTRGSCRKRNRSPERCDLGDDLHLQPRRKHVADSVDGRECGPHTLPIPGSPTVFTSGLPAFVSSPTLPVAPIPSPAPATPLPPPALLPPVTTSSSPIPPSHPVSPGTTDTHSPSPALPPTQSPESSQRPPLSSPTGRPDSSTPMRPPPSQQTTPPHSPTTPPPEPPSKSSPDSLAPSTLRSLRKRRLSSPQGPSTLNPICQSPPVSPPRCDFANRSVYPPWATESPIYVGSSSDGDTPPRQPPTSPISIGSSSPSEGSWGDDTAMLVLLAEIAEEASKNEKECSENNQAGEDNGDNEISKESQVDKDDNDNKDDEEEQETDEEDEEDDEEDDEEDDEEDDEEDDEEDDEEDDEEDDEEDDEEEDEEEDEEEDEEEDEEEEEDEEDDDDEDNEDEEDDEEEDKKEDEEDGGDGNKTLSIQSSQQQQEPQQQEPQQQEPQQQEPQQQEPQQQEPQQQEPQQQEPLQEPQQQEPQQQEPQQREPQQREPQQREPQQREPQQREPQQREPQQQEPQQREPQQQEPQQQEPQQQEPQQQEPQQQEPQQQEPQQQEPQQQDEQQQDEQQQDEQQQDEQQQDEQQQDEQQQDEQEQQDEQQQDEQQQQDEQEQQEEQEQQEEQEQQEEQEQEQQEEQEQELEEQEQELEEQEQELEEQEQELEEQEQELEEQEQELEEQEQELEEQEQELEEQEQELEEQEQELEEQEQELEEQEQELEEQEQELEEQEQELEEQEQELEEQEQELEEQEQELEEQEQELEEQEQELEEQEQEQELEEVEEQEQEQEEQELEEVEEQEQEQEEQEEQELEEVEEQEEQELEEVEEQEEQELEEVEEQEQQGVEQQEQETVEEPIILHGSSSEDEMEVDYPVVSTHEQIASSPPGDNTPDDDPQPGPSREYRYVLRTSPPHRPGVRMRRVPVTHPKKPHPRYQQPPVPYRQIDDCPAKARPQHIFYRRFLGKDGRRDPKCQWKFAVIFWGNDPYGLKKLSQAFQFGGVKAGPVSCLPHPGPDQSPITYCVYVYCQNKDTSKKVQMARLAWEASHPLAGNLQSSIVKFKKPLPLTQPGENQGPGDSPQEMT

[9] = biological target: T3, Calpain-2 catalytic subunit (Sus scrofa, UniProt P43367); test: pig calpain II inhibitor potency, dose response, biochemical, fluorogenic peptide substrate (AID 1420); format: functional
T3 sequence (P43367 whole entry): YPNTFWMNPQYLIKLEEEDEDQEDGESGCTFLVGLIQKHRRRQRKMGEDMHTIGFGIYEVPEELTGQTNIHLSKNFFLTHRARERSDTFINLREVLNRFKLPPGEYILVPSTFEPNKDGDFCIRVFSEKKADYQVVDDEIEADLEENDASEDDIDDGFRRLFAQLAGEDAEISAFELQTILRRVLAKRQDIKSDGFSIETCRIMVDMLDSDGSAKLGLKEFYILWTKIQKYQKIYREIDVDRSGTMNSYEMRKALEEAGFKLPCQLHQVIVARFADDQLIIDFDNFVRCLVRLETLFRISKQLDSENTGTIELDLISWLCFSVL

[10] = biological target: Beta-lactamase (Pseudomonas aeruginosa, UniProt Q79MP6);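 note: biochemical dose-response test of metallo-beta-lactamase enzyme inhibition, read out by epi-absorbance; purified recombinant IMP-1 metallo-beta-lactamase with nitrocefin as substrate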
Beta-lactamase (Pseudomonas aeruginosa, UniProt Q79MP6), sequence (Q79MP6 whole entry): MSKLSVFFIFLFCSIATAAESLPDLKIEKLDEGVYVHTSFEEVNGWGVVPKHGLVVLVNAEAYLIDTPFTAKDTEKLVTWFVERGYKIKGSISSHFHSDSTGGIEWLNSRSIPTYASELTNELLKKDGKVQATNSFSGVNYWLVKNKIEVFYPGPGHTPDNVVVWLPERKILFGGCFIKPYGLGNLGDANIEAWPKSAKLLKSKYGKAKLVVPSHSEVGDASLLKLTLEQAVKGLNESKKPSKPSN

[11] = biological target: Beta-lactamase (Salmonella choleraesuis (strain SC-B67), UniProt Q5J463)
Beta-lactamase (Salmonella choleraesuis (strain SC-B67), UniProt Q5J463), sequence (Q5J463 whole entry): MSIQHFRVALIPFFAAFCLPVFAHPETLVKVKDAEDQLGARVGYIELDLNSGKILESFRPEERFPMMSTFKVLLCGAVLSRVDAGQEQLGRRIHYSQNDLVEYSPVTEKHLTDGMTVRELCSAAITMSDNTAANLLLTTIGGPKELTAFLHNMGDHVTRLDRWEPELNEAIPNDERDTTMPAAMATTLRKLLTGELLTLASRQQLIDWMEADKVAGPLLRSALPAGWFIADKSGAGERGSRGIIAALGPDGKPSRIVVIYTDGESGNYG

[12] = biological target: Protein S100-A4 (Homo sapiens, UniProt P26447); test: S100A4-myosin IIA binding inhibitor potency, dose response, biochemical, fluorescence polarization, cherry-picked hits (AID 687001); format: functional
Protein S100-A4, sequence (P26447 whole entry): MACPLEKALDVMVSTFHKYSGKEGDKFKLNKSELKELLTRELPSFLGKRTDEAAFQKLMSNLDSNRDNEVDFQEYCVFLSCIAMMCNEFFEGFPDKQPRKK

[13] = biological target: T4, Heat shock factor protein 1 (Mus musculus, UniProt P38532); test: inhibition of MG132-induced HSE-luciferase signal, confirmation, cell-based, NIH3T3, luminescence, dose retest (AID 2382); format: functional;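 note: NIH3T3 fibroblasts with HSF1-driven luciferase reporter stressed by proteasome inhibitor MG132; luminescence from HSF1-driven luciferase expression after 8 hours of MG132 stress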
T4 sequence (P38532 whole entry): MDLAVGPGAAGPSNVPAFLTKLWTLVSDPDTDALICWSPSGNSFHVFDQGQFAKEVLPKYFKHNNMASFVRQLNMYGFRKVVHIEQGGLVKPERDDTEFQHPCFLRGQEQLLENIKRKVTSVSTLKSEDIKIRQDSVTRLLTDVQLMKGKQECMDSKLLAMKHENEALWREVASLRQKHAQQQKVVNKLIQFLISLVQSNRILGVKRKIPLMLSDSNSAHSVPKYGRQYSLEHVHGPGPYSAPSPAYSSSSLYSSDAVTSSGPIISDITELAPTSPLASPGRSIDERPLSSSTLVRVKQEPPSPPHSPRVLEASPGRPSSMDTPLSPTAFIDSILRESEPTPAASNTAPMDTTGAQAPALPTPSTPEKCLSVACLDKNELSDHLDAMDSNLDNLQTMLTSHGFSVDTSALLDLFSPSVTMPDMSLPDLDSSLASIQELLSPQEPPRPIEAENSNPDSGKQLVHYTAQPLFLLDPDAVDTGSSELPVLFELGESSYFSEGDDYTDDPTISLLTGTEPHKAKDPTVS

[14] = Counterscreen for antagonists of the human trace amine associated receptor 1 (hTAAR1): Fluorescence-based cell-based high throughput dose response assay to identify nonselective Ga16 antagonists.; format: functional
[15] = Counterscreen for […] of the human trace amine associated receptor 1 (TAAR1): Fluorescence-based cell-based high throughput dose response assay to identify nonselective Ga16 agonists.; format: functional

With `CN(C)c1ccc(NC(=O)c2cnsn2)cc1` the AC50 [1] was 6.9 µM (active), the IC50 [2] was > 2.5 µM (active) and the IC50 [3] was > 67.5 µM (inactive). The AC50 [4] was > 52 µM (inactive), the AC50 [5] was 4.26 µM (active) and the AC50 [6] was > 52 µM (inactive).

For `O=C(Nc1nnc(-c2ccncc2)s1)C1CCCO1` (configuration not stated), the IC50 [7] was 1.09 µM (active).

For `COc1cc2ccccc2cc1C(=O)Nc1cc(C)ccn1`, the IC50 [2] was > 67.6 µM (inactive) and the IC50 [3] was > 67.6 µM (inactive).

With `CCOC(=O)C1CCCN(c2ccc([N+](=O)[O-])c3nonc23)C1` (configuration not stated) the AC50 [8] was 4.35 µM (active), the IC50 [9] was 19 µM (not active) and the IC50 [10] was 37.1 µM (inactive). The IC50 [11] was 10.5 µM (inactive) and the AC50 [12] was 0.505 µM (active).

With `Cc1coc(NC(=O)CSc2nc(-c3ccc(Cl)cc3)cc(C(F)(F)F)c2C#N)n1` the EC50 [13] was > 195 µM (not active), the IC50 [14] was > 29.9 µM (inactive) and the EC50 [15] was > 29.9 µM (inactive).
